Holding throughout (assay): relative viability (nuclei count vs DMSO), 5 days (fraction); higher = more cells survive
Compound in assay [1]: Cn1nnc2c(C(N)=O)ncn2c1=O [Temozolomide] + CC1(C)CCC(c2ccc(Cl)cc2)=C(CN2CCN(c3ccc(C(=O)NS(=O)(=O)c4ccc(N[C@H](CCN5CCOCC5)CSc5ccccc5)c(S(=O)(=O)C(F)(F)F)c4)cc3)CC2)C1 [Navitoclax] (partner 0.5 µM)
The gist of the method:
(§1)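 After 5 days of treatment, lung cancer cells in 1536-well plates were fixed and stained in a single step (final 0.05% Triton X-100, 1% formaldehyde, 1 ug/ml Hoechst) and their nuclei counted on 4× images. Treatment had been applied by pin tool the day after seeding as one drug alone or as a fixed anchor-drug dose with five library-drug doses (not always all listed) in √10 steps. Relative viability is the nuclei count of treated wells divided by that of vehicle wells, and values are medians of duplicate plates.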

Compound in assay [2]: Cn1nnc2c(C(N)=O)ncn2c1=O [Temozolomide] + CCNC(=O)c1noc(-c2cc(C(C)C)c(O)cc2O)c1-c1ccc(CN2CCOCC2)cc1 [Luminespib] (partner 0.01 µM)
The gist of the method: as §1

Compound in the assay “Temozolomide + Dasatinib”: Cn1nnc2c(C(N)=O)ncn2c1=O [Temozolomide] + Cc1nc(Nc2ncc(C(=O)Nc3c(C)cccc3Cl)s2)cc(N2CCN(CCO)CC2)n1 [Dasatinib] (partner 0.075 µM)
The gist of the method:
as §1

Compound in the assay “Temozolomide + AZD7762”: Cn1nnc2c(C(N)=O)ncn2c1=O [Temozolomide] + NC(=O)Nc1cc(-c2cccc(F)c2)sc1C(=O)N[C@H]1CCCNC1 [AZD7762] (partner 0.2 µM)
A digest of the protocol:
as §1

As to PC-3 [JPC-3], the relative viability in assay [1] (first compound 0.2 µM) worked out at 0.725; in assay [1] (first compound 0.6325 µM), 0.847; in assay [1] (first compound 2 µM), 0.784; in assay [1] (first compound 6.325 µM) it was 0.82; in assay [1] (first compound 20 µM), 0.364; in assay [2] (first compound 0.2 µM), 0.63. The relative viability in assay [2] (first compound 0.6325 µM) was determined as 0.739; in assay [2] (first compound 2 µM), 0.776; in assay [2] (first compound 6.325 µM) it was 0.659; in assay [2] (first compound 20 µM), 0.421; with Temozolomide + Dasatinib (first compound 0.2 µM), 0.825; in the assay with Temozolomide + Dasatinib (first compound 0.6325 µM) it was 0.987. Besides, the relative viability with Temozolomide + Dasatinib (first compound 2 µM) was 1.07; with Temozolomide + Dasatinib (first compound 6.325 µM) it was 1.02; with Temozolomide + Dasatinib (first compound 20 µM), 0.438; in the assay with Temozolomide + AZD7762 (first compound 0.2 µM), 0.775; with Temozolomide + AZD7762 (first compound 0.6325 µM) it was 0.916; with Temozolomide + AZD7762 (first compound 2 µM) it was 0.825. Also, the relative viability came out at 0.797 with Temozolomide + AZD7762 (first compound 6.325 µM) and 0.529 with Temozolomide + AZD7762 (first compound 20 µM).
Take PC-14: the relative viability worked out at 1.07 in assay [1] (first compound 0.2 µM); 1.01 in assay [1] (first compound 0.6325 µM); 1.06 in assay [1] (first compound 2 µM); 0.956 in assay [1] (first compound 6.325 µM); 0.928 in assay [1] (first compound 20 µM); 0.143 in assay [2] (first compound 0.2 µM). For the same cell line, the relative viability in assay [2] (first compound 0.6325 µM) is 0.151; in assay [2] (first compound 2 µM), 0.167; in assay [2] (first compound 6.325 µM), 0.244; in assay [2] (first compound 20 µM), 0.144; with Temozolomide + Dasatinib (first compound 0.2 µM), 0.216; in the assay with Temozolomide + Dasatinib (first compound 0.6325 µM) it was 0.317. Moreover, the relative viability came to 0.318 with Temozolomide + Dasatinib (first compound 2 µM); 0.257 with Temozolomide + Dasatinib (first compound 6.325 µM); 0.0365 with Temozolomide + Dasatinib (first compound 20 µM); 0.361 with Temozolomide + AZD7762 (first compound 0.2 µM); 0.402 in the assay with Temozolomide + AZD7762 (first compound 0.6325 µM); 0.322 in the assay with Temozolomide + AZD7762 (first compound 2 µM). For the same cell line, the relative viability stood at 0.275 with Temozolomide + AZD7762 (first compound 6.325 µM) and 0.15 with Temozolomide + AZD7762 (first compound 20 µM).
Regarding RERF-LC-KJ, the relative viability in assay [1] (first compound 0.2 µM) came out at 1.04; in assay [1] (first compound 0.6325 µM), 0.884; in assay [1] (first compound 2 µM), 0.928; in assay [1] (first compound 6.325 µM), 0.951; in assay [1] (first compound 20 µM), 1.06; in assay [2] (first compound 0.2 µM), 1.29. Also, the relative viability worked out at 1.19 in assay [2] (first compound 0.6325 µM); 1.32 in assay [2] (first compound 2 µM); 1.19 in assay [2] (first compound 6.325 µM); 1.27 in assay [2] (first compound 20 µM); 0.913 in the assay with Temozolomide + Dasatinib (first compound 0.2 µM); 0.825 with Temozolomide + Dasatinib (first compound 0.6325 µM). The relative viability with Temozolomide + Dasatinib (first compound 2 µM) was determined as 0.931; with Temozolomide + Dasatinib (first compound 6.325 µM) it was 0.931; with Temozolomide + Dasatinib (first compound 20 µM) it was 0.767; in the assay with Temozolomide + AZD7762 (first compound 0.2 µM) it was 0.977; in the assay with Temozolomide + AZD7762 (first compound 0.6325 µM), 0.926; with Temozolomide + AZD7762 (first compound 2 µM), 0.989. Further, the relative viability in the assay with Temozolomide + AZD7762 (first compound 6.325 µM) turned out to be 0.953; in the assay with Temozolomide + AZD7762 (first compound 20 µM), 1.01.

For the origin of these results see the supplement of paper PMC10307832.
